# In patent US6011000A, “Compositions for the treatment of blood disorders” (priority 1995, dated 2000):
# Read-outs that look alike come from different tables or passages of the source.
# Tests used:
# [1] = tested on: erythroid cells (peripheral blood); test: Erythroid cell viability by fluorescent staining (Calcein-AM), FIG. 2; type: cell-based, human; conditions: vs untreated controls
# [2] = tested on: K562 cells; test: Dose response of cell growth, trypan blue exclusion (FIG. 3); type: cell-based, human; conditions: day 4
# Protocol: FIG. 3 Cell viability as determined by the comparative numbers of total and viable K562 cells in the presence of increasing concentrations of (A) phenoxyacetic acid, (B) dihydrocinnamic acid, (C) butyric acid ethyl ester, (D) arginine butyrate, and (E) isobutyramide.
# Dose response curves at dosages of up to 2.0 mM were also determined for phenoxyacetic acid (PAA; FIG. 3A), dihydrocinnamic acid (DHC; FIG. 3B), butyric acid ethyl ester (BAEE; FIG. 3C), arginine butyrate (AB; FIG. 3D) and isobutyramide (IBT; FIG. 3E). Cells were counted on day 4 of treatment and viable cells identified by trypan blue exclusion.
# [3] = tested on: fetal globin mRNA (human erythroleukemia cells); test: Fetal globin mRNA in erythroleukemia cells (primer extension); type: cell-based; conditions: for Gamma/Alpha: untreated 0.46; for activation at 1000 µM: Homo sapiens, 96 h, read-out: Gamma Globin mRNA (increase)
# Protocol: Compounds were tested for increased expression of the human globin genes in human erythroid cells. In addition, as the cell line being tested is a tumor cell line, the assay determines if differentiation, a growth inhibitory effect on cancer cells, is induced by the compounds tested. Human erythroleukemia cells were cultured in RPMI media with 10% fetal calf serum alone or with treatment with various compounds for 4 days. Globin MRNA was quantitated by primer extension analysis. Fetal globin mRNA was compared to the amount of fetal globin mRNA produced in untreated cells during the same culture period. The quantitation was expressed as a percent of alpha globin MRNA which was constant. Results are expressed proportional to α-globin mRNA (Table 3).
# [4] = tested on: K562; test: Growth of human erythroid cell line K562; type: cell-based; conditions: for growth of K562: over 3 days
# Protocol: Such activities might limit their utility for treatment of anemias such as occur in thalassemia, but alternatively would be useful for anticancer effects. […]
# Cell viability analyses were performed using fluorescent staining to detect living cells. Cells were in log phase of growth in 6-well dishes when used in proliferation assays. For enumeration of living cells, wells were washed once with medium to remove nonadherent or dead cells. Remaining live cells were labeled with Calcein-AM for 20 minutes at 37° C. and washed once. Fluorescence intensity of adherent live cells was read on a CytoFluor 2300 Fluorescence Plate Scanner (Millipore; Bedford, Mass.) at excitation and emission wavelengths of 485 and 530 nm, respectively. The fluorescence intensity of a well was proportional to the number of living cells in the well. Background fluorescence was measured separately for each plate and subtracted from all readings. Each experiment was performed in triplicate or quadruplicate. The standard deviation (SD) of repetitive readings was less than 30% of the mean.
# At higher concentrations, still easily achievable in vivo, arginine butyrate (0.5 mM) and dihydrocinnamic acid (greater than 0.5 mM) inhibited growth of this tumor cell line by approximately 50%. Therefore, these compounds are also useful as anti-tumor agents.
# [5] = tested on: anemic baboon; test: In vivo reticulocyte proliferation, globin expression and blood counts in anemic (phlebotomized) baboons
# Procedure, shortened: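 Juvenile female baboons kept at 7.0–7.5 g/dl haemoglobin by daily phlebotomy got compounds sequentially, with wash-out until reticulocytes returned to baseline; each animal served as its own control. F-reticulocytes were measured by dual-antibody FACS, and γ/(γ+β) globin synthesis by ³H-leucine labelling and column chromatography. Blood counts were taken, unadjusted for phlebotomy.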
# [6] = tested on: system A transport (K562 cells and nucleated erythroblasts from fetal liver); test: Effects on system A amino acid transport (3H-MAIB uptake); type: cell-based, human
# Protocol: Inhibition of nutrient uptake is undesirable for treatment of anemias. Methyl aminoisobutyric acid (MAIB) labeled with tritium (^3 H) is normally taken up by system A amino acid transport. Cold (unlabeled) compounds were added to cultures containing ^3 H-MAIB and incubated for 1 hour. Cells were harvested and the amount of ^3 H taken up by cells was quantitated by scintillation counting.
# [7] = 1,000 to 1,500 mg/kg/day i.v., 4 days
structure (smiles),measurement,setting,value
"O=C(O)COc1ccccc1 [PAA, Phenoxyacetic acid]",erythroid cell growth and proliferation,[1]; 0.5 mM,either had no effect or stimulated erythroid cell growth and proliferation
same,proliferation,[2]; up to 2.0 mM,did not significantly inhibit proliferation
same,induction of fetal globin mRNA,[3],significantly increased the induction of fetal globin MRNA
same,Gamma/Alpha,"[3]; 1.0 mM, 4 days",0.70
same,activation at 1000 µM,[3],24%
same,growth of K562,[4]; 0.5 mM,"either did not inhibit, or slightly enhanced growth"
same,duration of effect after drug was discontinued,"[5]; 1,500 mg/kg infused daily, 5 days",maintained itself for two days after drug was discontinued and slowly declined thereafter
same,Total hemoglobin,"[5]; 1,500 mg/kg infused daily, 5 days (FIG. 7), from 6.8",7.6 grams/dl
same,reticulocytes,"[5]; 1,500 mg/kg infused daily, 5 days, from 1.9%",9.2 % of all red blood cells
same,white blood cell count,"[5]; 1,500 mg/kg infused daily, 5 days, from 6.9",9.5 10^3 cells/μl
same,packed red blood cell volume,"[5]; 1,500 mg/kg infused daily, 5 days, from 22%",25.4%
same,Fetal reticulocytes,"[5]; 500, 1,000, 1,500 mg/kg infused, after 3 days (FIG. 9), from 12%",27%
same,"Fetal reticulocytes, increase above baseline",[5]; [7],800%
same,"Fetal reticulocytes, increase above baseline (fold)",[5]; [7],eight-fold
same,increase in output of fetal globin production over basal levels,[5]; [7],"4,000%"
same,Fetal reticulocytes,"[5]; 1,000 to 1,500 mg/kg/day i.v., 4 days, another juvenile baboon, from 2%",16%
same,Fetal globin protein synthesis,"[5]; 1,000 to 1,500 mg/kg/day i.v., 4 days, from 0%",5%
same,system A (neutral) amino acid transport,"[6]; 1 hour, 3H-MAIB (FIG. 12), listed as phenoxy acetic acid",caused no significant inhibition and actually increased uptake of nutrients into cells
same,system A (neutral) amino acid transport,"[6]; 1 hour, 3H-MAIB (FIG. 12), listed as phenoxyacetic acid",do not significantly alter system A transport of amino acids
"CCCC(=O)O [AB, arginine butyrate]",erythroid cell growth and proliferation,[1]; 0.2 mM,inhibited proliferation
same,erythroid cell growth and proliferation,[1]; 0.5 mM,inhibited proliferation
same,cell growth,[2]; concentrations above 0.2 mM,suppressed cell growth
same,induction of fetal globin mRNA,[3],significantly increased the induction of fetal globin MRNA
same,Gamma/Alpha,"[3]; 1.0 mM, 4 days",0.66
same,activation at 1000 µM,"[3]; 1.0 mM, 4 days",20%
same,growth of K562,[4]; 0.2 mM,"either did not inhibit, or slightly enhanced growth"
same,inhibition at 500 µM,"[4]; Homo sapiens, K562, 0.5 mM",~50%
same,response to treatment,"[5]; 1,000 mg/kg for 5 days",had not responded
same,response to treatment,"[5]; 2,000 mg/kg for 3 days",had not responded
same,system A (neutral) amino acid transport,[6],inhibited the neutral amino acid transport mechanism
